{"source": "PubChem BioAssay AID1259409", "about": "(Chemical Carcinogenesis Research Information System (CCRIS), 2018)", "origin": "cited, not measured here", "system": "rodent chemically induced tumor inhibition, incidence and multiplicity", "experiment": "CCRIS tumor inhibitor studies", "data": [{"smiles": "O=C(OC[C@@H]1O[C@H](OC(=O)c2cc(O)c(O)c(OC(=O)c3cc(O)c(O)c(O)c3)c2)[C@@H](OC(=O)c2cc(O)c(O)c(OC(=O)c3cc(O)c(O)c(O)c3)c2)[C@H](OC(=O)c2cc(O)c(O)c(OC(=O)c3cc(O)c(O)c(O)c3)c2)[C@H]1OC(=O)c1cc(O)c(O)c(OC(=O)c2cc(O)c(O)c(O)c2)c1)c1cc(O)c(O)c(OC(=O)c2cc(O)c(O)c(O)c2)c1", "values": [{"measurement": "tumour outcome (control, treated, inhibition, significance)", "setting": "Carcinogen: 7,12-DIMETHYLBENZ[A]ANTHRACENE, 57-97-6, Dose [Inhibitor]: 0, 17 MG 2/WK FOR 20 WK APPLIED 20 MIN PRIOR TO EACH PROMOTER DOSE (STUDY DURATION: 22 WK), Route [Inhibitor]: DERMAL, Species: (36,?)/(36,?), Strain/Sex: CF-1/FEMALE, Target Tissue: Type of Lesion: SKIN: PAPILLOMA, Dose [Carcinogen]: 25.6 UG IN 0.2 ML ACETONE ONCE, Promoter: 12-O-TETRADECANOYLPHORBOL-13-ACETATE, 16561-29-8", "value": "90%, 65%, 28%, not calculated"}, {"measurement": "tumour outcome (control, treated, inhibition, significance)", "setting": "Carcinogen: 7,12-DIMETHYLBENZ[A]ANTHRACENE, 57-97-6, Dose [Inhibitor]: 0, 20 UMOL IN 0.4 ML ACETONE 20 MIN PRIOR TO EACH PROMOTER DOSE (STUDY DURATION: 47 WK), Route [Inhibitor]: DERMAL, Species: MOUSE, Strain/Sex: CF-1/FEMALE, Target Tissue: Type of Lesion: SKIN: CARCINOMA, Dose [Carcinogen]: 100 NMOL IN 0.2 ML ACETONE ONCE", "value": "66%, 0%, 100%, not calculated"}, {"measurement": "tumour outcome (control, treated, inhibition, significance)", "setting": "Carcinogen: 7,12-DIMETHYLBENZ[A]ANTHRACENE, 57-97-6, Dose [Inhibitor]: 0, 20 UMOL IN 0.4 ML ACETONE 20 MIN PRIOR TO EACH PROMOTER DOSE (STUDY DURATION: 47 WK), Route [Inhibitor]: DERMAL, Species: MOUSE, Strain/Sex: CF-1/FEMALE, Target Tissue: Type of Lesion: SKIN: PAPILLOMA, Dose [Carcinogen]: 100 NMOL IN 0.2 ML ACETONE ONCE", "value": "94%, 23%, 76%, not calculated"}, {"measurement": "tumour outcome (control, treated, inhibition, significance)", "setting": "Carcinogen: 7,12-DIMETHYLBENZ[A]ANTHRACENE, 57-97-6, Dose [Inhibitor]: 0, 34 MG 2/WK FOR 2 WK APPLIED 20 MIN PRIOR TO EACH TPA DOSE (STUDY DURATION: 22 WK), Route [Inhibitor]: DERMAL, Species: MOUSE, Strain/Sex: SENCAR/FEMALE, Target Tissue: Type of Lesion: SKIN: PAPILLOMA, Dose [Carcinogen]: 6.4 UG IN 0.2 ML ACETONE ONCE, Promoter: 12-O-TETRADECANOYLPHORBOL-13-ACETATE, 16561-29-8, MEZEREIN, 34807-41-5, Promoter: 12-O-TETRADECANOYLPHORBOL-13-ACETATE, 16561-29-8, MEZEREIN, 34807-41-5", "value": "90%, 96%, -7%, not calculated"}, {"measurement": "tumour outcome (control, treated, inhibition, significance)", "setting": "Carcinogen: 7,12-DIMETHYLBENZ[A]ANTHRACENE, 57-97-6, Dose [Inhibitor]: 0, 34 MG 2/WK FOR 18 WK APPLIED 20 MIN PRIOR TO EACH MEZEREIN DOSE (STUDY DURATION: 22 WK), Route [Inhibitor]: DERMAL, Species: MOUSE, Strain/Sex: SENCAR/FEMALE, Target Tissue: Type of Lesion: SKIN: PAPILLOMA, Dose [Carcinogen]: 6.4 UG IN 0.2 ML ACETONE ONCE, Promoter: 12-O-TETRADECANOYLPHORBOL-13-ACETATE, 16561-29-8, MEZEREIN, 34807-41-5, Promoter: 12-O-TETRADECANOYLPHORBOL-13-ACETATE, 16561-29-8, MEZEREIN, 34807-41-5", "value": "90%, 25%, 72%, not calculated"}, {"measurement": "tumour outcome (control, treated, inhibition, significance)", "setting": "Carcinogen: (+/-)-7BETA,8ALPHA-DIHYDROXY-9ALPHA,10ALPHA-EPOXY-7,8,9,10- TETRAHYDROBENZO[A]PYRENE, 58917-67-2, Dose [Inhibitor]: 3000 NMOL IN 0.2 ML ACETONE 1/D FOR 7 D (STUDY DURATION: 18 WK), Route [Inhibitor]: DERMAL, Species: MOUSE, Strain/Sex: SENCAR/FEMALE, Target Tissue: Type of Lesion: SKIN: TUMOR, Dose [Carcinogen]: 200 NMOL IN 0.2 ML ACETONE ONCE 30 MIN POST LAST INHIBITOR DOSE, Promoter: 12-O-TETRADECANOYLPHORBOL-13-ACETATE, 16561-29-8", "value": "75%, 60%, 20%, not significant"}, {"measurement": "tumour outcome (control, treated, inhibition, significance)", "setting": "Carcinogen: BENZO[A]PYRENE, 50-32-8, Dose [Inhibitor]: 1% AQUEOUS SOLUTION 3/WK FOR A TOTAL OF 80 APPLICATIONS FOLLOWED BY AT LEAST 365 D OBSERVATION PERIOD (STUDY DURATION: 5, Route [Inhibitor]: DERMAL, Species: MOUSE, Strain/Sex: CD-1/MALE, FEMALE, Target Tissue: Type of Lesion: SKIN: CARCINOMA, SQUAMOUS CELL PAPILLOMA, SEBACEOUS ADENOMA, BASAL CELL TUMOR, KERATOACANTHOMA, Dose [Carcinogen]: 0.53-0.6 MG ONCE PRIOR TO START OF AGENT TREATMENT, Promoter: NONE USED", "value": "17/50 (34%), 15/50 (30%), 12%, not significant"}, {"measurement": "tumour outcome (control, treated, inhibition, significance)", "setting": "Carcinogen: BENZO[A]PYRENE, 50-32-8, Dose [Inhibitor]: 1% IN DIET BEGINNING 45 D PRIOR TO CARCINOGEN (STUDY DURATION: 36 WK), Route [Inhibitor]: ORAL, Species: MOUSE, Strain/Sex: SENCAR/FEMALE, Target Tissue: Type of Lesion: FORESTOMACH: PAPILLOMA, Dose [Carcinogen]: 100 MG/KG IN 0.2 ML CORN OIL 2/WK FOR 4 WK, Promoter: NONE USED", "value": "27/30 (90%), 19/30 (63%), 30%, not calculated"}, {"measurement": "tumour outcome (control, treated, inhibition, significance)", "setting": "Carcinogen: BENZO[A]PYRENE, 50-32-8, Dose [Inhibitor]: 1% IN DIET BEGINNING 45 D PRIOR TO CARCINOGEN (STUDY DURATION: 36 WK), Route [Inhibitor]: ORAL, Species: MOUSE, Strain/Sex: SENCAR/FEMALE, Target Tissue: Type of Lesion: LUNG: ADENOMA, Dose [Carcinogen]: 100 MG/KG IN 0.2 ML CORN OIL ONCE, Promoter: NONE USED", "value": "27/30 (90%), 18/30 (60%), 33%, not calculated"}, {"measurement": "tumour outcome (control, treated, inhibition, significance)", "setting": "Carcinogen: DIMETHYLBENZ[A]ANTHRACENE, 57-97-6, Dose [Inhibitor]: 1% IN DIET BEGINNING 45 D PRIOR TO CARCINOGEN DOSE AND CONTINUED FOR 10 D POST CARCINOGEN (STUDY DURATION: 16 WK), Route [Inhibitor]: ORAL, Species: MOUSE, Strain/Sex: SENCAR/FEMALE, Target Tissue: Type of Lesion: SKIN: PAPILLOMA, Dose [Carcinogen]: 10 UG IN 0.2 ML ACETONE ONCE, Promoter: TPA, 16561-29-8", "value": "30/30 (100%), 30/30 (100%), 0%, not calculated"}, {"measurement": "tumour outcome (control, treated, inhibition, significance)", "setting": "Carcinogen: UV IRRADIATION, Dose [Inhibitor]: 0, 200 UG IN 200 µL ACETONE 3/WK FOR DURATION OF STUDY BEGINNING 2 WK PRIOR TO UV IRRADIATION (STUDY DURATION: 29 WK), Route [Inhibitor]: DERMAL, Species: MOUSE, Strain/Sex: BALB/CANNTACFBR/FEMALE, Target Tissue: Type of Lesion: SKIN: TUMOR, Dose [Carcinogen]: 6.94 J/M2/SEC 30 MIN/D 5 D/WK FOR 17.5 WK, Promoter: NONE USED", "value": "75%, 42%, 44%, p=0.028"}]}]}
